We go through five compounds from US20040229867A1, “Treatment of gastrointestinal dysfunction and related stress with an enantiomerically-pure (R) 2,3-benzodiazepine” (priority 2003, published 2004).

A value given as a limit tells only on which side of the number the result lay.

For assay [1], the system named is colonic propulsive motility. As to the kind of experiment: Glass bead test (stimulated colonic propulsion). The assay is classed as in vivo, mouse. To be noted: for Expulsion Time Mean ± SEM: 30 minutes prior to bead insertion, cutoff 30 minutes, in min. Here is the method: In the test, usually performed in mice, a 3-mm glass bead is inserted through the anus into the distal colon (using a glass rod) to a depth of 2 cm. The time to expel the glass bead is then measured; normally, the glass bead is expelled in approximately 10 minutes. This model is especially sensitive to compounds with inhibitory effects on stretch-stimulated propulsive motor activity; as such, it is often used as an animal model for IBS. A test compound that inhibits stretch-stimulated-colonic propulsive motility, may be used to treat gastrointestinal dysfunction, including IBS. […] The glass bead test is commonly used to evaluate the ability of compounds to affect stimulated colonic propulsion. In the test, usually performed in mice, a 3-mm glass bead is inserted through the anus into the distal colon (using a glass rod) to a depth of 2 cm. The time to expel the glass bead is then measured; normally, the glass bead is expelled in approximately 10 minutes. This model is especially sensitive to compounds with inhibitory effects on stretch-stimulated propulsive motor activity; as such, it is often used as an animal model for IBS. In each study, RS— and R-tofisopam were evaluated for their ability to increase or decrease the time for expulsion of the glass bead.

In the next assay the test system is stress-induced ulcers. Conditions: pre-treatment 30 or 100 mg/kg PO; cited from earlier work.
For assay [2], the system named is hydrochloric acid-induced, alkali-induced and cauterization-induced ulcers. To be noted: in vivo; cited from earlier work.
Assay [3] deals with gastrointestinal propulsive motility. Put plainly: Charcoal meal test (basal gastrointestinal propulsive motility). In kind it is in vivo, rat. To be noted: for % Inhibition: numbers in parentheses indicate % increase; for effect on charcoal meal transit: R-tofisopam at the highest dose tested, loperamide positive control.
Assay [4] has as its system stress-induced ulcer formation. Put plainly: Water immersion stress-induced ulcers test. In kind it is in vivo, rat. Conditions: for Score for the Presence of Ulcers Mean ± SEM: score 0-4; for Ulceration Index: ulcer score x percentage of stomachs showing ulcers; for effect on ulcer score: text summary of Table 4.
For assay [5], the system named is abdominal contractions induced by colonic distension. As to the kind of experiment: Visceral hypersensitivity, pain and bloating test (colonic distension after 1% acetic acid). In kind it is in vivo, rat.
In the next assay the test system is gastric function. Conditions: cited from earlier work.
Assay [6] deals with dextran sulfate sodium-induced colitis. As to the kind of experiment: Dextran sulfate sodium-induced colitis. The assay is classed as in vivo. Conditions: DSS 5% solution in tap water. An excerpt: Another gastrointestinal disorder model tested was the dextran sulfate sodium-induced colitis. In this model of colitis, an acute inflammation of the colon is produced by administration of dextran sulfate sodium (DSS) as a 5% solution in tap water. This colitis is characterized by histological events and an influx of neutrophils, macrophages and mediators of inflammation similar to those observed with human inflammatory bowel diseases.

Assay [7] has the same test system. To be noted: in vivo; cited from earlier work.
[8] abbreviates: first experiment, 64 mg/kg IP, 30 minutes prior to charcoal meal.
[9] abbreviates: 8 mg/kg IP 30 minutes prior to water immersion.

Consider `CCC1C(C)=NN=C(c2ccc(OC)c(OC)c2)c2cc(OC)c(OC)cc21` (racemic) [RS-tofisopam, tofisopam], for which the % Inhibition (in general, the relative decrease from the control value, in per cent) is 46% in [1] (16 mg/kg IP); 71% in assay [1] (32 mg/kg IP); 82% in [1] (64 mg/kg IP); 9.8% in [3] (first experiment, 16 mg/kg IP); 4.7% in assay [3] (first experiment, 32 mg/kg IP); 0% in assay [3] (first experiment, 64 mg/kg IP). For the same compound, the “% Inhibition” value came out at 5.8% in assay [3] (second experiment, 16 mg/kg IP) and 12.2% in [3] (second experiment, 32 mg/kg IP). Besides, the “Expulsion Time Mean ± SEM” value in [1] (16 mg/kg IP) was found to be 19.0 ± 2.8; in [1] (32 mg/kg IP), 23.7 ± 2.6; in [1] (64 mg/kg IP), 26.4 ± 2.4. Further, the “reduction of number of stress-induced ulcers and total area of ulceration” value in the assay with stress-induced ulcers is on record as not above 90%. Besides, the “effect on cauterization-induced ulcers” value in assay [2] is reported as “promoted the healing”. Moreover, the “effect on hydrochloric acid-induced and alkali-induced ulcers” value in assay [2] is on record as “suppressed the development”. For the same compound, the “% Intestine Traversed Mean ± SEM” value in [3] (first experiment, 16 mg/kg IP) came out at 73.5 ± 3.5%; in assay [3] (first experiment, 32 mg/kg IP), 77.7 ± 2.3%; in assay [3] (setting [8]), 81.7 ± 2.8%; in assay [3] (second experiment, 4 mg/kg IP), 77.9 ± 2.9%; in assay [3] (second experiment, 8 mg/kg IP) it was 78.3 ± 1.7%; in [3] (second experiment, 16 mg/kg IP), 70.4 ± 3.7%. For the same compound, in assay [3] (second experiment, 32 mg/kg IP), the “% Intestine Traversed Mean ± SEM” value is on record as 65.6 ± 4.5%. In addition, the “% of Stomachs Showing Ulcers” value in [4] (8 mg/kg IP) stood at 100%; in assay [4] (16 mg/kg IP) it was 100%; in assay [4] (32 mg/kg IP), 100%; in assay [4] (64 mg/kg IP) it was 100%; in [4] (128 mg/kg IP), 75%. Also, the “Score for the Presence of Ulcers Mean ± SEM” value (“Score … of Ulcers Mean ± SEM” for short) in [4] (setting [9]) came to 3.4 ± 0.3; in [4] (16 mg/kg IP) it was 3.4 ± 0.3; in assay [4] (32 mg/kg IP), 3.5 ± 0.3; in assay [4] (64 mg/kg IP), 3.1 ± 0.3; in assay [4] (128 mg/kg IP) it was 2.4 ± 0.4. For the same compound, the “Ulceration Index” value in assay [4] (8 mg/kg IP) is reported as 338; in [4] (16 mg/kg IP), 338; in [4] (32 mg/kg IP) it was 350; in [4] (64 mg/kg IP), 313; in assay [4] (128 mg/kg IP), 178. In [5] (32 mg/kg), the “effect on number of abdominal contractions versus vehicle control” value was “did not significantly modify”. In addition, the “effect on basal gastric acid output and mucosal blood flow” value with gastric function (intracerebroventricular injection 50 or 100 μg) is “increased both basal gastric acid output and mucosal blood flow”. In the assay with gastric function (intravenous injection 10 mg/kg), the “effect on basal gastric acid output” value is listed as “did not change basal gastric acid output”.
As to `CN1C(=O)CC(=O)N(c2ccccc2)c2cc(Cl)ccc21` [Clobazam, clobazam], in assay [4] (16 mg/kg IP), the “% of Stomachs Showing Ulcers” value came to 100%, the “Score … of Ulcers Mean ± SEM” value amounted to 3.6 ± 0.2 and the “Ulceration Index” value was 363. In [4] (32 mg/kg IP), the “% of Stomachs Showing Ulcers” value came to 75%, the “Score … of Ulcers Mean ± SEM” value is given as 2.6 ± 0.5 and the “Ulceration Index” value worked out at 197. Further, the “effect on ulcer score” value in [4] is reported as “reduced the ulcer score slightly, but this effect was not statistically significant”.
As for `CN(C)C(=O)C(CCN1CCC(O)(c2ccc(Cl)cc2)CC1)(c1ccccc1)c1ccccc1` [Loperamide, loperamide], in assay [3] (second experiment, 16 mg/kg IP), the “% Intestine Traversed Mean ± SEM” value was 28.1 ± 2.2 % and the “% Inhibition” value was 62.5%. The “effect on charcoal meal transit” value in assay [3] (second experiment) is “considerable slowing”.
Consider `CC[C@H]1C(C)=NN=C(c2ccc(OC)c(OC)c2)c2cc(OC)c(OC)cc21` [R-tofisopam, (R)-1-(3,4-dimethoxyphenyl)-4-methyl-5-ethyl-7,8-dimethoxy-5H-2,3-benzodiazepine], for which the “% Inhibition” value in [1] (16 mg/kg IP) is listed as 100%; in [1] (32 mg/kg IP), 99%; in assay [1] (64 mg/kg IP), 90%; in [3] (first experiment, 64 mg/kg IP) it was 10.6%; in assay [3] (second experiment, 4 mg/kg IP) it was 4.1%; in assay [3] (second experiment, 16 mg/kg IP) it was 12.1%. The “% Inhibition” value in assay [3] (second experiment, 32 mg/kg IP) is on record as 20.3%. Further, the “Expulsion Time Mean ± SEM” value in [1] (16 mg/kg IP) amounted to 30.0 ± 0.0; in assay [1] (32 mg/kg IP), 29.7 ± 0.3; in assay [1] (64 mg/kg IP), 28.0 ± 1.1. In addition, the “effect on colonic expulsion” value in assay [1] (text summary of Table 1, 16-64 mg/kg IP) was “significantly prolonged (i.e., slowed) colonic expulsion”. In addition, the “effect in DSS colitis model compared with racemic tofisopam” value in assay [6] is recorded as “substantially greater effect”. Besides, the “% Intestine Traversed Mean ± SEM” value in assay [3] (first experiment, 16 mg/kg IP) stood at 82.8 ± 3.1%; in [3] (first experiment, 32 mg/kg IP), 85.4 ± 2.9%; in [3] (setting [8]), 72.9 ± 2.9 %; in [3] (second experiment, 4 mg/kg IP), 71.72 ± 3.2%; in [3] (second experiment, 8 mg/kg IP) it was 75.2 ± 4.1%; in assay [3] (second experiment, 16 mg/kg IP) it was 65.7 ± 3.0%. Moreover, in assay [3] (second experiment, 32 mg/kg IP), the “% Intestine Traversed Mean ± SEM” value was 59.5 ± 3.2 %. The “effect on charcoal meal transit” value in [3] (second experiment) was “only a slight inhibition”. Further, the “% of Stomachs Showing Ulcers” value in assay [4] (8 mg/kg IP) is recorded as 100%; in assay [4] (16 mg/kg IP), 88%; in assay [4] (32 mg/kg IP), 88%; in assay [4] (64 mg/kg IP) it was 29%; in assay [4] (128 mg/kg IP), 38%. For the same compound, the “Score … of Ulcers Mean ± SEM” value in [4] (setting [9]) is given as 3.6 ± 0.3; in [4] (16 mg/kg IP), 3.1 ± 0.5; in [4] (32 mg/kg IP), 3.1 ± 0.5; in assay [4] (64 mg/kg IP), 1.7 ± 0.6; in assay [4] (128 mg/kg IP), 1.4 ± 0.2. In addition, the “Ulceration Index” value was 363 in assay [4] (8 mg/kg IP); 273 in assay [4] (16 mg/kg IP); 273 in assay [4] (32 mg/kg IP); 49 in assay [4] (64 mg/kg IP); 52 in assay [4] (128 mg/kg IP). In addition, in assay [4], the “effect on ulcer score” value was “significantly reduced the ulcer score”. Besides, the “decrease of abdominal cramps versus vehicle control” value in assay [5] (32 mg/kg p.o.) is 49%. The “number of abdominal cramps” value in assay [5] (32 mg/kg p.o., vehicle control 18.8 cramps) is 9.5±1.7 cramps.
In the case of `O=C(O)c1cc(/N=N/c2ccc(S(=O)(=O)Nc3ccccn3)cc2)ccc1O` [sulfasalazine], in [7], the “activity in DSS colitis model” value is “have been shown to have activity in this model”.
